From ChEMBL document CHEMBL1909046, “DrugMatrix in vitro pharmacology data”

How the values were obtained:
[1] = DRUGMATRIX: Calcium Channel Type L, Benzothiazepine radioligand binding (ligand: [3H] Diltiazem); format: cell membranes, Rattus norvegicus, Wistar, Brain, Membrane; details: Not Active = under 50% inhibition at 10 µM
[2] = molecular target: Beta-2 adrenergic receptor (Homo sapiens, UniProt P07550); experiment: DRUGMATRIX: Adrenergic beta2 radioligand binding (ligand: [3H] CGP-12177); format: cell membranes, CHO, Membrane; details: cho; Not Active = under 50% inhibition at 10 µM
[3] = molecular target: T1, Type-2 angiotensin II receptor (Homo sapiens, UniProt P50052); format: cell-based; details: cho-k1; further: in other assays of this panel Not Active means under 50% inhibition at 10 µM
T1 sequence (P50052 whole entry): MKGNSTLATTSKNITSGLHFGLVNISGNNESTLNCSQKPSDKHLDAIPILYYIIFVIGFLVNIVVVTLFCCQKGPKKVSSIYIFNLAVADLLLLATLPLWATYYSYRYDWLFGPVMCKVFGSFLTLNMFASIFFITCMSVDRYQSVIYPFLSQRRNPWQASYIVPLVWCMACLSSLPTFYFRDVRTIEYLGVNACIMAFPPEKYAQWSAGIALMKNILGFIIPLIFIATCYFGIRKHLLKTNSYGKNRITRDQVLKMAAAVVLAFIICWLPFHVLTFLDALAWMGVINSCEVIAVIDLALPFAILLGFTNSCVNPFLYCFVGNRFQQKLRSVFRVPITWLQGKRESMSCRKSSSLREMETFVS

[4] = molecular target: Vascular endothelial growth factor receptor 1 (Homo sapiens, UniProt P17948); experiment: biochemical; format: cell-based, HUVEC; details: huvec; further: in other assays of this panel Not Active means under 50% inhibition at 10 µM
[5] = molecular target: T2, 3-hydroxy-3-methylglutaryl-coenzyme A reductase (Homo sapiens, UniProt P04035); design: species or system Escherichia coli;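 further: enzyme inhibition assay of HMG-CoA reductase using radiolabeled [14C]HMG-CoA as substrate; in other assays of this panel Not Active means under 50% inhibition at 10 µM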
T2 sequence (P04035 whole entry): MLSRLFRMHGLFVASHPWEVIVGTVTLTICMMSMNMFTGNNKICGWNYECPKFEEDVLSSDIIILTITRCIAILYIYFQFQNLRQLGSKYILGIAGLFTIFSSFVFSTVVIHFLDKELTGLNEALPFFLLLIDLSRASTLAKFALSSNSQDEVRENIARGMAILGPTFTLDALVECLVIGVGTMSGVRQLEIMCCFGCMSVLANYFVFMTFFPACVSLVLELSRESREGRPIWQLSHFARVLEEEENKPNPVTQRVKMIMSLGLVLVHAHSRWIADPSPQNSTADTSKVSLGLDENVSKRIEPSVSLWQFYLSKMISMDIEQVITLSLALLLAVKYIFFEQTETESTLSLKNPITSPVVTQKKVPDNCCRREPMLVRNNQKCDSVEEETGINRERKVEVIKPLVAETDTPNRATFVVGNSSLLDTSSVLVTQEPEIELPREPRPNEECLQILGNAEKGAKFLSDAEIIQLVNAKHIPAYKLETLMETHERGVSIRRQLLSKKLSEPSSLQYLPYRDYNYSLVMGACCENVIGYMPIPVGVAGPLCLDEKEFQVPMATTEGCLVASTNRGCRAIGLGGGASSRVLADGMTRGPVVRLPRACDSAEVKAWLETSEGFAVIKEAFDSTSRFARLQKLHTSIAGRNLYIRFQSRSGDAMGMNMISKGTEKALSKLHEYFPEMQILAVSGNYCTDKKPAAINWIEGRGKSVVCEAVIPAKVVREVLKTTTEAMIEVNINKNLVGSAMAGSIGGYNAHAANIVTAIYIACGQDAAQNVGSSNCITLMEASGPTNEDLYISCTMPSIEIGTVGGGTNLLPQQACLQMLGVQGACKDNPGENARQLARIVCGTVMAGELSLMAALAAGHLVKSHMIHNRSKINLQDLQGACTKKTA

[6] = molecular target: Beta-1 adrenergic receptor (Homo sapiens, UniProt P08588); experiment: DRUGMATRIX: Adrenergic beta1 radioligand binding (ligand: [125I] Cyanopindolol); format: cell membranes, CHO-K1, Membrane; details: cho-k1; Not Active = under 50% inhibition at 10 µM
[7] = molecular target: Prostaglandin G/H synthase 1 (Homo sapiens, UniProt P23219); experiment: biochemical; format: tissue-based, Platelet;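 further: inhibition of COX-1 enzyme activity, with arachidonic acid supplied as substrate; in other assays of this panel Not Active means under 50% inhibition at 10 µM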
[8] = DRUGMATRIX: Interleukin IL-1 radioligand binding (ligand: [125I] interleukin 1beta); format: cell membranes, Membrane; details: nih3t3; Not Active = under 50% inhibition at 10 µM

Sequence of Prostaglandin G/H synthase 1 (P23219 whole entry): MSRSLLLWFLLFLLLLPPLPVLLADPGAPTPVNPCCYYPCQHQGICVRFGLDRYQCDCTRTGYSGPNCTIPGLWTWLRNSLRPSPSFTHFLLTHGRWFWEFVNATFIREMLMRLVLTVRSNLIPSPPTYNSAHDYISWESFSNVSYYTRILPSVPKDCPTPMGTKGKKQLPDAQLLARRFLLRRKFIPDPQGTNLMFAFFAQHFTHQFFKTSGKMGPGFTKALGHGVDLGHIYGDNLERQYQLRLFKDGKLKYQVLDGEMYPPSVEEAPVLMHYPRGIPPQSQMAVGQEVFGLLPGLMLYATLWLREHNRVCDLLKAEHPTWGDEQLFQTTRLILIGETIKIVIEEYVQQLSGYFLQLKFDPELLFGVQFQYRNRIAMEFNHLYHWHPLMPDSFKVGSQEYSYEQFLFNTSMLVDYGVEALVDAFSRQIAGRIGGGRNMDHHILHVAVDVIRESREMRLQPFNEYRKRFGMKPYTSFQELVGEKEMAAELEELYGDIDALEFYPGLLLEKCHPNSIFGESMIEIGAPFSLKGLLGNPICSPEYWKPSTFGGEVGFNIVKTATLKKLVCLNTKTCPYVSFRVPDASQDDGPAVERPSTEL
Sequence of Beta-1 adrenergic receptor (P08588 whole entry): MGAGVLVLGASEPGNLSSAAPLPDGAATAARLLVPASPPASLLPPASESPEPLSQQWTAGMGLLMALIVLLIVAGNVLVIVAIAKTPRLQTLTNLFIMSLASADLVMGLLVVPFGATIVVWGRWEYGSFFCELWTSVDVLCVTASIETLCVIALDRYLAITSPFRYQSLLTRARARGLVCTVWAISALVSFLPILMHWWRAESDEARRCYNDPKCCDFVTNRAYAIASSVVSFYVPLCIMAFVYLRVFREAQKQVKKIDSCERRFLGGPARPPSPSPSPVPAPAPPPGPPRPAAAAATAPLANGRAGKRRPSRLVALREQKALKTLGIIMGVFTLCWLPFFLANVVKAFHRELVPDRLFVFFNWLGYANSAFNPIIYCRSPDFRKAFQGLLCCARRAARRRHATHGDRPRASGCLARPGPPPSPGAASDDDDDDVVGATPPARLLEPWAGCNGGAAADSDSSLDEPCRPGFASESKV
Sequence of Vascular endothelial growth factor receptor 1 (P17948 whole entry): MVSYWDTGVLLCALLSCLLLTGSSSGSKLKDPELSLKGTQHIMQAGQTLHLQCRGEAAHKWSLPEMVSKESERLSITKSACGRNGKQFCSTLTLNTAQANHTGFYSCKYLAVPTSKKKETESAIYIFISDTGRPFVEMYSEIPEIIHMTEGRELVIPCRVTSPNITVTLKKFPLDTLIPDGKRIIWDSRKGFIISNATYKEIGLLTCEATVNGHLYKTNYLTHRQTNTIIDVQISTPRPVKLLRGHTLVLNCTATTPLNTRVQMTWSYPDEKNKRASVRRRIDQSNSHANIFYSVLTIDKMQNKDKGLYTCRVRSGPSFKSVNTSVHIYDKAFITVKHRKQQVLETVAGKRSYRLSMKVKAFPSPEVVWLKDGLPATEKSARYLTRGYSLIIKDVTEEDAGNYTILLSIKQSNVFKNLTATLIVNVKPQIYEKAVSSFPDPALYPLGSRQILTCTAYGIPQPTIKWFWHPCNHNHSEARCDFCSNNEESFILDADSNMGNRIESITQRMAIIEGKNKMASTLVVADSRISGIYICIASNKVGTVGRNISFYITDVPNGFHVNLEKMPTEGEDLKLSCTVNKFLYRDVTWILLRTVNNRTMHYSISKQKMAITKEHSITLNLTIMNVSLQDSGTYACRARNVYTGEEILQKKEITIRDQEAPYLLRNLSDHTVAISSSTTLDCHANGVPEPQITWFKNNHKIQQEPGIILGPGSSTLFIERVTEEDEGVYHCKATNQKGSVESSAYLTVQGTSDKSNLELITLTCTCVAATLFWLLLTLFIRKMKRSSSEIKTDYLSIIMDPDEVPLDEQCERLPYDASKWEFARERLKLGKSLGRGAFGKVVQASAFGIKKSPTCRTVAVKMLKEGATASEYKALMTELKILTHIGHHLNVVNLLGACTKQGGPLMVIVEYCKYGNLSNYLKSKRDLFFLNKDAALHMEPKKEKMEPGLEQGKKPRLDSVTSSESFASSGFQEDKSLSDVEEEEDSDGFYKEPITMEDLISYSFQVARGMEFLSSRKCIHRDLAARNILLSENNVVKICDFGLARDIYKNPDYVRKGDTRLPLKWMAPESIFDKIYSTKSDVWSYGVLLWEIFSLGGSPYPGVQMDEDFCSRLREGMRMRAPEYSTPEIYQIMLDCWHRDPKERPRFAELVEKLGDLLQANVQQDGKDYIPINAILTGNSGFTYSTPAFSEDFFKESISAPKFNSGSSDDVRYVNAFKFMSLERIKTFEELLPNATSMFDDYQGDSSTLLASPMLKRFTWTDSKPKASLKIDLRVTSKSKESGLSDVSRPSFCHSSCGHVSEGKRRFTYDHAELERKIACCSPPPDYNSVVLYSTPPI

| Molecule | IC50 [1] | Ki [1] | IC50 [2] | IC50 [3] | IC50 [4] | IC50 [5] | IC50 [6] | IC50 ([7]; platelet) | IC50 [8] | Ki [8] | IC50 ([7]; read-out: IC50) | Ki [2] | Ki [3] | Ki [4] | Ki [5] | Ki [6] | Ki ([7]; platelet) |
| --- | --- | --- | --- | --- | --- | --- | --- | --- | --- | --- | --- | --- | --- | --- | --- | --- | --- |
| CCN(CC)CCNC(=O)c1cc(S(C)(=O)=O)ccc1OC [TIAPRIDE] | Not Active | Not Active | Not Active | Not Active | Not Active | Not Active | Not Active | Not Active | Not Active | Not Active |  |  |  |  |  |  |  |
| Clc1ccccc1CN1CCc2sccc2C1 [TICLOPIDINE] | Not Active | Not Active | Not Active | Not Active | Not Active | Not Active | Not Active | Not Active | Not Active | Not Active |  |  |  |  |  |  |  |
| NC1CCN(c2nc3c(cc2F)c(=O)c(C(=O)O)cn3-c2ccc(F)cc2F)C1 (configuration not stated) [TOSUFLOXACIN] | Not Active | Not Active | Not Active | Not Active | Not Active | Not Active | Not Active | Not Active | Not Active | Not Active |  |  |  |  |  |  |  |
| O=C(Nc1ccc(Br)cc1)c1cc(Br)cc(Br)c1O [TRIBROMSALAN] | Not Active | Not Active | Not Active | Not Active | Not Active | Not Active | Not Active |  | Not Active | Not Active | 2070 nM |  |  |  |  |  |  |
| CC(c1cc2ccccc2s1)N(O)C(N)=O (configuration not stated) [ZILEUTON] | Not Active | Not Active | Not Active | Not Active | Not Active | Not Active | Not Active | Not Active | Not Active | Not Active |  |  |  |  |  |  |  |
| MANGANESE CHLORIDE ANHYDROUS | Not Active | Not Active | Not Active | Not Active | Not Active | Not Active | Not Active | Not Active | Not Active | Not Active |  | Not Active | Not Active | Not Active | Not Active | Not Active | Not Active |
| SODIUM ORTHOVANAD | Not Active | Not Active | Not Active | Not Active | Not Active | Not Active | Not Active | Not Active | Not Active | Not Active |  | Not Active | Not Active | Not Active | Not Active | Not Active | Not Active |
